These results are taken from patent US20130109682A1, “CYCLIC ETHER COMPOUNDS USEFUL AS KINASE INHIBITORS” (NOVARTIS AG, priority 2010, published 2013).

For orientation: IC50 means the concentration at which inhibition is half-maximal. What is called EC50 is the concentration at which the effect is half-maximal. Read a high EC50 as a less potent agent.

Structures are written as SMILES.

One test addresses PIM1 (Homo sapiens, UniProt P11309). The experiment in a line: KinaseGlo Pim1 ATP depletion assay. In kind it is biochemical. A digest of the protocol: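 2.5 nM PIM1 preincubated 15 min with compound and 40 μM BAD peptide in 50 mM HEPES pH 7.5, 5 mM MgCl2, 1 mM DTT, 0.05% BSA, 2.5% DMSO. The reaction was started with 20 μM ATP (final) and run to about 50% ATP depletion. Remaining ATP read by KinaseGlo Plus luminescence to give IC50.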
Background: Kinase-Glo reads ATP consumption through a luciferase reaction.

In test [1] the test system is KMS11 (human myeloma cell line). The test can be described thus: Cell proliferation assay (CellTiter-Glo), KMS11. It counts as cell-based. The following applies: Homo sapiens, KMS-11; KMS11-Luc cells. A digest of the protocol:
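KMS11 cells in IMDM with 10% FBS and sodium pyruvate, seeded at 2000 cells/well on assay day. Compound added at 2× to equal volume of cells, incubated 3 days at 37° C. Viability read by CellTiter-Glo luminescence; EC50 derived.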
(ATP-based viability assays read luminescence as a measure of living cells.)

The next test addresses PIM3 (Homo sapiens, UniProt Q86V86). The experiment in a line: KinaseGlo Pim3 ATP depletion assay. In kind it is biochemical. A digest of the protocol: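 Kinase was preincubated 15 min with BAD peptide in HEPES pH 7.5/MgCl2/DTT/BSA before ATP was added. Final concentrations were 40 μM ATP, 100 μM BAD peptide and 2.5% DMSO, with 5 nM enzyme. The reaction ran to ~50% ATP depletion and remaining ATP was read by KinaseGlo Plus luminescence.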

Another test addresses PIM2 (Homo sapiens, UniProt Q9P1W9). The test can be described thus: KinaseGlo Pim2 ATP depletion assay. In kind it is biochemical. A digest of the protocol: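 Luminescent ATP-depletion read-out of PIM2 phosphorylating BAD peptide (RSRHSSYPAGT-OH). Final conditions: 5 nM PIM2, 4 μM ATP, 10 μM peptide, 2.5% DMSO in 50 mM HEPES pH 7.5, 5 mM MgCl2, 1 mM DTT, 0.05% BSA. Enzyme–peptide preincubated 15 min with compound; reaction run to ~50% ATP depletion.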

The next test concerns the target GSK3β (Homo sapiens, UniProt P49841). The experiment in a line: GSK3β ATP depletion assay. It counts as biochemical. The following applies: read-out: GSK3b IC50. The essentials:
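Human GSK3β (5 nM) preincubated 15 min with 10 μM biotinylated phospho-CREB peptide in pH 7.5 Tris buffer (15 mM MgCl2, 1 mM DTT, 0.1% BSA, 2.5% DMSO). Reaction started with 2 μM ATP and run to about 50% ATP depletion. Remaining ATP measured by KinaseGlo luminescence.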

Sequence of GSK3β (P49841 whole entry, species assumed): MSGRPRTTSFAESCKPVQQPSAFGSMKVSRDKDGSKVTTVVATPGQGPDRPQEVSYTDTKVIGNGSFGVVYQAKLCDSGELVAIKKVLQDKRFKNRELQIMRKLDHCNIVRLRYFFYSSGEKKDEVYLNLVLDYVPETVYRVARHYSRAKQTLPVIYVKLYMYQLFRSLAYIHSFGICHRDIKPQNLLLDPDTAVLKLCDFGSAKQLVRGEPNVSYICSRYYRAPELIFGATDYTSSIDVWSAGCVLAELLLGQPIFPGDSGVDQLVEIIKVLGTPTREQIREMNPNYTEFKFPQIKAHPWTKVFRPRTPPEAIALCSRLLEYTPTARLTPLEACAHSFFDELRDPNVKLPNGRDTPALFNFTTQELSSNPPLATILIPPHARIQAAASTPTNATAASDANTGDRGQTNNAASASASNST
Sequence of PIM2 (Q9P1W9 whole entry): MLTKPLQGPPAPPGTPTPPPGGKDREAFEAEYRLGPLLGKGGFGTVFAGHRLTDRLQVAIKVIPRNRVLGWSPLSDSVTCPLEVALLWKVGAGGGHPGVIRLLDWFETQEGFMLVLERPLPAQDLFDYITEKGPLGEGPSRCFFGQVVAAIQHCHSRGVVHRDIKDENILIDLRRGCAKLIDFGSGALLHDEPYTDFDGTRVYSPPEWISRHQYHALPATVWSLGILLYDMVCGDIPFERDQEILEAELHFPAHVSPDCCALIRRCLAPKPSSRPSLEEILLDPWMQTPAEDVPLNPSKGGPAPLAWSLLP
Sequence of PIM1 (P11309 whole entry): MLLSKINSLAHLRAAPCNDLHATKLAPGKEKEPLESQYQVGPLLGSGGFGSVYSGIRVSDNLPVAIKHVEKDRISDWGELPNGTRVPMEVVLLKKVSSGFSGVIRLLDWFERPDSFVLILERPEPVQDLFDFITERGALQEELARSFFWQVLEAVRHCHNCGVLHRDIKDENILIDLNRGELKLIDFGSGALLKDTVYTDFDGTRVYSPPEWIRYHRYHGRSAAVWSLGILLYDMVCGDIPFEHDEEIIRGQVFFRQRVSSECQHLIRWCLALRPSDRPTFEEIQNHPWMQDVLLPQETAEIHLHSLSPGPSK

For the compound `O=C(Nc1cnccc1[C@@H]1C[C@H](O)[C@]2(O)CCC[C@@H]2O1)c1ccnn(-c2ccccc2F)c1=O` [Example 203, N-(4-((2S,4S,4aR,7aS)-4,4a-dihydroxyoctahydrocyclopenta[b]pyran-2-yl)pyridin-3-yl)-2-(2-fluorophenyl)-3-oxo-2,3-dihydropyridazine-4-carboxamide], the IC50 at PIM1 was 6610 nM; against PIM3, 23800 nM; at PIM2 it was > 250000 nM; on GSK3β, 543 nM. Further, the EC50 in test [1] is > 10000 nM.
Taken in the same sequence, the figures for `O=C(Nc1cnccc1[C@H]1C[C@@H](O)[C@@]2(O)CCC[C@H]2O1)c1ccc(F)c(-c2c(F)cccc2F)n1` [Example 204, 6-(2,6-difluorophenyl)-N-(4-((2R,4R,4aS,7aR)-4,4a-dihydroxyoctahydrocyclopenta[b]pyran-2-yl)pyridin-3-yl)-5-fluoropicolinamide] were 0.5 nM, 2 nM, 2.8 nM, 46.2 nM and 5310 nM.
`Nc1cnc(-c2c(F)cccc2F)nc1C(=O)Nc1cnccc1[C@@H]1C[C@H](O)[C@@H](O)[C@H](C2CC2)O1` [Example 205, 5-amino-N-(4-((2S,4S,5R,6S)-6-cyclopropyl-4,5-dihydroxytetrahydro-2H-pyran-2-yl)pyridin-3-yl)-2-(2,6-difluorophenyl)pyrimidine-4-carboxamide]: the IC50 against PIM1 amounted to 37.3 nM; on PIM3, 69.7 nM; against PIM2, 45.4 nM; on GSK3β it was 1870 nM. For the same compound, in test [1], the EC50 was > 10000 nM.
Turning to `O=C(Nc1cnccc1[C@@H]1C[C@H](O)[C@@H](O)[C@H](C2CC2)O1)c1cccc(-c2c(F)cccc2F)n1` [Example 206, N-(4-((2S,4S,5R,6S)-6-cyclopropyl-4,5-dihydroxytetrahydro-2H-pyran-2-yl)pyridin-3-yl)-6-(2,6-difluorophenyl)picolinamide], the IC50 was 19.9 nM at PIM1, 20.2 nM on PIM3, 33.8 nM on PIM2 and 1920 nM on GSK3β. Besides, the EC50 in test [1] was > 10000 nM.
In the same order, the values of `Nc1cnc(-c2c(F)cccc2F)nc1C(=O)Nc1cnccc1[C@H]1C[C@@H](O)[C@H](O)[C@@H](C2CC2)O1` [Example 207, 5-amino-N-(4-((2R,4R,5S,6R)-6-cyclopropyl-4,5-dihydroxytetrahydro-2H-pyran-2-yl)pyridin-3-yl)-2-(2,6-difluorophenyl)pyrimidine-4-carboxamide] are 6.3 nM, 8.5 nM, 6 nM, 572 nM and 6450 nM.
`O=C(Nc1cnccc1[C@H]1C[C@@H](O)[C@H](O)[C@@H](C2CC2)O1)c1cccc(-c2c(F)cccc2F)n1` [Example 208, N-(4-((2R,4R,5S,6R)-6-cyclopropyl-4,5-dihydroxytetrahydro-2H-pyran-2-yl)pyridin-3-yl)-6-(2,6-difluorophenyl)picolinamide]: the IC50 against PIM1 stood at 4.6 nM; against PIM3, 6.6 nM; at PIM2, 8.8 nM; on GSK3β, 796 nM. In test [1], the EC50 was > 10000 nM.
Taken in the same sequence, the figures for `O=C(Nc1cnccc1[C@@H]1C[C@H](O)[C@@H](O)[C@H](C2CC2)O1)c1ccc(F)c(-c2c(F)cccc2F)n1` [Example 209, N-(4-((2S,4S,5R,6S)-6-cyclopropyl-4,5-dihydroxytetrahydro-2H-pyran-2-yl)pyridin-3-yl)-6-(2,6-difluorophenyl)-5-fluoropicolinamide] were 3.2 nM, 4.2 nM, 7.9 nM, 1060 nM and 9500 nM.
